Where “and” joins values, the source holds several entries; their conditions need not be identical. Identical values can stand only once.
Experiments:
Thromboxane-A synthase = target: T1, Thromboxane-A synthase (Homo sapiens, UniProt P24557); test: In vitro inhibition against thromboxane synthase
T1 sequence (P24557 whole entry): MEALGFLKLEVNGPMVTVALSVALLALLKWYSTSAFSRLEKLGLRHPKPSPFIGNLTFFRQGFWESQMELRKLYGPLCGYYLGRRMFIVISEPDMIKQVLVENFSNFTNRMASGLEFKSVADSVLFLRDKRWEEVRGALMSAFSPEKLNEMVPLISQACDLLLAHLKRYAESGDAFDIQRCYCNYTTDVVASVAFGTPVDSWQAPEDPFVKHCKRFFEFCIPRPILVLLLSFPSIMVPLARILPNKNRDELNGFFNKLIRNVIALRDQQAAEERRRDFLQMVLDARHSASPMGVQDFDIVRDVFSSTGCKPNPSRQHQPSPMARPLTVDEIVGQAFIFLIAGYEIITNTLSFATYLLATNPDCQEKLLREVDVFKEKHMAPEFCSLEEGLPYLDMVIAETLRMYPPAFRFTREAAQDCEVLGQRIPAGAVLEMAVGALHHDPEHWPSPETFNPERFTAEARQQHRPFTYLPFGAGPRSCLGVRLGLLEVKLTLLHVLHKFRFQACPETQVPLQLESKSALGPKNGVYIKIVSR

Cavia porcellus = test: Ex vivo inhibition of […] induced guinea pig platelet aggregation after 1 hr post oral administration at a dose of 10 mg/kg; Aggregation ratio = EC50 for drug/EC50 for control; type: functional
[1] = In vitro thromboxane receptor antagonist against U-46619 induced aggregation of washed human platelets

Structure (SMILES)	IC50 (Thromboxane-A synthase) [nM]	further results
O=C(O)CC/C=C\CC[C@H]1[C@@H](OCc2ccc(-c3ccccc3)cc2)CO[C@@H]1c1cccnc1 (stereo in doubt; (-))	120	–
O=C(O)CC/C=C\CC[C@@H]1[C@@H](c2cccnc2)OC[C@H]1OCc1ccc(-c2ccccc2)cc1	22	–
O=C(O)CCCCO/N=C(/c1cccnc1)c1cccc(C(F)(F)F)c1 [RIDOGREL]	–	Aggregation ratio (Cavia porcellus): 4.4
O=C(O)CC/C=C\CC[C@H]1[C@@H](OCc2ccc(-c3ccccc3)cc2)CO[C@H]1c1cccnc1	32	–
O=C(O)CCC(CCCCNS(=O)(=O)c1ccc(Cl)cc1)CCCc1cccnc1 (stereo not given)	–	IC50 [1]: 18 nM; Aggregation ratio (Cavia porcellus): 24.5

The next lines start with results.

IC50 (Thromboxane-A synthase) [nM]	Structure (SMILES)	further results
65	O=C(O)CC/C=C\CC[C@H]1[C@H](OCc2ccc(-c3ccccc3)cc2)CO[C@H]1c1cccnc1	–
17	O=C(O)CC/C=C\CC[C@H]1[C@@H](OCc2ccc(-c3ccccc3)cc2)CO[C@@H]1c1cccnc1 (stereo in doubt; 5)	–
4.3	O=C(O)CC/C=C\CC[C@H]1[C@@H](OCc2ccc(-c3ccccc3)cc2)CO[C@@H]1c1cccnc1 (stereo in doubt; (+))	Aggregation ratio (Cavia porcellus; 10 mg/kg): >100 and 65.6

Reference: ChEMBL document CHEMBL1151532, “Oxa-prostanoid analogs. Identification of an orally effective, dual thromboxane receptor antagonist /thromboxane synthase inhibitor” (Bioorg Med Chem Lett, 1994)
